Assay results from ChEMBL document CHEMBL1201862, “PubChem BioAssay data set” (2004).
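In this assay, cells in 96-well plates receive the compound at five concentrations for 48 hours. Endpoints are linearly interpolated between the surrounding concentrations. Here, GI50 denotes the concentration required for 50% inhibition of growth.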 Calls of active or inactive are those of the source. No stated cut-off is given here; in the data, active = GI50 up to about 1.1 µM and inactive = higher.

Assays:
Assay in all cases: inhibition of tumour cell growth, NCI panel, 48 h
COLO 205 = tested on: COLO 205
T47D = tested on: T47D
SK-OV-3 = tested on: SK-OV-3
HCC 2998 = tested on: HCC 2998
RPMI-8226 = tested on: RPMI-8226
NCI-H23 = tested on: NCI-H23
HL-60 = tested on: HL-60
A498 = tested on: A498
SK-MEL-5 = tested on: SK-MEL-5
TK-10 = tested on: TK-10
SF-295 = tested on: SF-295
NCI-H226 = tested on: NCI-H226
BT-549 = tested on: BT-549
MOLT-4 = tested on: MOLT-4
Malme-3M = tested on: Malme-3M
SK-MEL-28 = tested on: SK-MEL-28
NCI/ADR-RES = tested on: NCI/ADR-RES
DU-145 = tested on: DU-145
CAKI-1 = tested on: CAKI-1
SW-620 = tested on: SW-620

| SMILES | GI50 (COLO 205) | GI50 (T47D) | GI50 (SK-OV-3) | GI50 (HCC 2998) | GI50 (RPMI-8226) | GI50 (NCI-H23) | GI50 (HL-60) | GI50 (A498) | GI50 (SK-MEL-5) | GI50 (TK-10) | GI50 (SF-295) | GI50 (NCI-H226) | GI50 (BT-549) | GI50 (MOLT-4) | GI50 (Malme-3M) | GI50 (SK-MEL-28) | GI50 (NCI/ADR-RES) | GI50 (DU-145) | GI50 (CAKI-1) | GI50 (SW-620) |
| --- | --- | --- | --- | --- | --- | --- | --- | --- | --- | --- | --- | --- | --- | --- | --- | --- | --- | --- | --- | --- |
| C=C1[C@@H](C)[C@H]2[C@H](Cc3ccccc3)NC(=O)[C@]23OC(=O)/C=C/[C@H](O)CCC[C@@H](C)C/C=C/[C@H]3[C@@H]1O | 0.713 µM (active) | 2.92 µM (inactive) | 32.6 µM (inactive) | 50 µM (inactive) | 1.82 µM (inactive) | 7 µM (inactive) | 16.1 µM (inactive) | 1.83 µM (inactive) | 9.53 µM (inactive) | 4.06 µM (inactive) | 0.979 µM (active) | 1.18 µM (inactive) | 15.4 µM (inactive) | 4.04 µM (inactive) | 16.3 µM (inactive) | 12.8 µM (inactive) | 20.3 µM (inactive) | 30.1 µM (inactive) | 0.233 µM (active) | 23.2 µM (inactive) |
| N=C(N)NS(=O)(=O)c1ccc(NC(=O)c2ccc3nc4ccccc4c(Nc4ccc(S(=O)(=O)N=C(N)N)cc4)c3c2)cc1 | > 100 µM (inactive) | > 100 µM (inactive) | > 100 µM (inactive) | > 100 µM (inactive) | > 100 µM (inactive) | > 100 µM (inactive) | > 100 µM (inactive) | > 100 µM (inactive) | > 100 µM (inactive) | > 100 µM (inactive) | > 100 µM (inactive) | > 100 µM (inactive) | > 100 µM (inactive) | > 100 µM (inactive) | > 100 µM (inactive) | > 100 µM (inactive) | > 100 µM (inactive) | > 100 µM (inactive) | > 100 µM (inactive) | > 100 µM (inactive) |
| CC(C)(C)c1cc(C(C)(C)C)c2c(c1O)OC(=O)CS2 | 2.99 µM (inactive) | 4.56 µM (inactive) | 13.4 µM (inactive) | 3.03 µM (inactive) | 21.1 µM (inactive) | 4.15 µM (inactive) | 3.62 µM (inactive) | 13 µM (inactive) | 2.88 µM (inactive) | 3.88 µM (inactive) | 4.26 µM (inactive) | 8.34 µM (inactive) | 8.32 µM (inactive) | 4.61 µM (inactive) | 20.8 µM (inactive) | 13.4 µM (inactive) | 4.55 µM (inactive) | 15.7 µM (inactive) | 5.9 µM (inactive) | 6.52 µM (inactive) |
| NC1N=C(c2ccc(Cl)cc2)C2=C(N1)c1ccccc1CC2 (stereo not given) | 33.9 µM (inactive) | 10.4 µM (inactive) | > 100 µM (inactive) | 0.156 µM (active) | 2.66 µM (inactive) | 30 µM (inactive) | 2.81 µM (inactive) | 49.5 µM (inactive) | 14.7 µM (inactive) | 48.2 µM (inactive) | 22.3 µM (inactive) | 14.4 µM (inactive) | > 100 µM (inactive) | 3.17 µM (inactive) | 10.3 µM (inactive) | 64.7 µM (inactive) | 13 µM (inactive) | 52.4 µM (inactive) | 76.4 µM (inactive) | 10.8 µM (inactive) |
| COC(=O)/C=C/c1cnc2c(c1)oc(=O)n2C | > 100 µM (inactive) | > 100 µM (inactive) | > 100 µM (inactive) | > 100 µM (inactive) | > 100 µM (inactive) | > 100 µM (inactive) | > 100 µM (inactive) | > 100 µM (inactive) | > 100 µM (inactive) | > 100 µM (inactive) | > 100 µM (inactive) | > 100 µM (inactive) | > 100 µM (inactive) | > 100 µM (inactive) | > 100 µM (inactive) | > 100 µM (inactive) | > 100 µM (inactive) | > 100 µM (inactive) | > 100 µM (inactive) | > 100 µM (inactive) |
| O=C(O)CN1CCNCCN(CC(=O)O)CC1 | 2.01 µM (inactive) | > 100 µM (inactive) | 38.4 µM (inactive) | 10.6 µM (inactive) | 7.23 µM (inactive) | 3.25 µM (inactive) | 3.08 µM (inactive) | 3.42 µM (inactive) | 5.48 µM (inactive) | 8.2 µM (inactive) | > 69 µM (inactive) | 9.93 µM (inactive) | > 100 µM (inactive) | 4.81 µM (inactive) | 2.35 µM (inactive) | 33.8 µM (inactive) | 2.44 µM (inactive) | > 100 µM (inactive) | > 100 µM (inactive) | 3.4 µM (inactive) |
| COC(=O)CN(CC(=O)NCCNC(=O)OC(C)(C)C)C1CCCCC1N(CC(=O)OC)CC(=O)OC (stereo not given) | > 100 µM (inactive) | > 100 µM (inactive) | > 100 µM (inactive) | > 100 µM (inactive) | > 100 µM (inactive) | > 100 µM (inactive) | > 100 µM (inactive) | > 100 µM (inactive) | > 100 µM (inactive) | > 100 µM (inactive) | > 100 µM (inactive) | 48 µM (inactive) | > 100 µM (inactive) | > 100 µM (inactive) | > 100 µM (inactive) | > 100 µM (inactive) | > 100 µM (inactive) | > 100 µM (inactive) | > 100 µM (inactive) | > 100 µM (inactive) |
| C=C1C(OC)=C(OC)C(=O)c2[nH]c3c(OC)cc([N+](=O)[O-])cc3c21 | > 100 µM (inactive) | > 100 µM (inactive) | > 100 µM (inactive) | > 100 µM (inactive) | > 100 µM (inactive) | > 100 µM (inactive) | > 100 µM (inactive) | > 100 µM (inactive) | > 100 µM (inactive) | > 100 µM (inactive) | > 100 µM (inactive) | > 100 µM (inactive) | > 100 µM (inactive) | > 100 µM (inactive) | > 100 µM (inactive) | > 100 µM (inactive) | > 100 µM (inactive) | > 100 µM (inactive) | > 100 µM (inactive) | > 100 µM (inactive) |
| NC(=O)c1c[se]c(C2OC(CO)C(O)C2O)n1 (stereo not given) | 1.22 µM (inactive) | > 100 µM (inactive) | > 29 µM (inactive) | 32.4 µM (inactive) | 6.43 µM (inactive) | 11 µM (inactive) | 0.984 µM (active) | 44 µM (inactive) | 10.3 µM (inactive) | > 91.4 µM (inactive) | 2.39 µM (inactive) | > 58.6 µM (inactive) | 8.09 µM (inactive) | 0.568 µM (active) | > 100 µM (inactive) | 2.61 µM (inactive) | 9.16 µM (inactive) | 31.8 µM (inactive) | 6.93 µM (inactive) | 1.47 µM (inactive) |
| Cc1c(-c2cnccn2)ssc1=S [OLTIPRAZ] | > 100 µM (inactive) | 67.6 µM (inactive) | 35.9 µM (inactive) | > 100 µM (inactive) | > 100 µM (inactive) | 88.5 µM (inactive) | 61.9 µM (inactive) | 34.8 µM (inactive) | 36.3 µM (inactive) | 62.7 µM (inactive) | 57.4 µM (inactive) | 94.2 µM (inactive) | 22 µM (inactive) | > 96.4 µM (inactive) | > 100 µM (inactive) | > 100 µM (inactive) | > 100 µM (inactive) | > 100 µM (inactive) | > 100 µM (inactive) | > 100 µM (inactive) |
